The values below come from US8618055B2, “Prominin-1 peptide fragments and uses thereof” (Children's Medical Center Corporation, priority 2008, dated 2013).

Test [1] relates to endothelial cells. The test is described as follows: I125-VEGF binding to endothelial cells in presence of peptide. Type of test: cell-based. To be noted: for VEGF binding to cells (endothelial cells) with #237 fragments: 100 μg/ml of each peptide. The procedure: (§1) 10000 cells were incubated in binding buffer containing 20 mM Hepes, 0.1% BSA and I125-VEGF (12 ng/ml) for 3 h on ice.
(§2) In order to characterize the effect of the peptides on VEGF binding to endothelial and melanoma cells, the cells were incubated with various peptides (720 μg/ml) in the presence of […] (12 ng/ml) (FIG. 3). Peptide #237 increased VEGF binding to endothelial as well to melanoma cells. 10000 cells were incubated in binding buffer containing 20 mM Hepes, 0.1% BSA and I^125-VEGF (12 ng/ml) for 3 h on ice. Following 3 washings, the radioactive levels were determined by gamma counter. An increase of more than 25 times in I^125-VEGF binding was observed when peptide #237 was added to both kinds of cells. All other peptides had no effect on VEGF binding.
(§3) To characterize which are the essential amino acids within the #237 peptide that are crucial to accelerate VEGF binding to the cells, three shorter peptides were designed as presented at Table 2. The cells were treated with the smaller peptides in the same way as described in FIG. 3. 10000 cells were incubated in binding buffer containing 20 mM Hepes, 0.1% BSA, I^125-VEGF (12 ng/ml) and 100 μg/ml of each peptide, for 3 h on ice. Following 3 washings with binding buffer, the radioactive levels were determined using a gamma counter.
The inventors also investigated which amino acid residues in peptide #237 are important for the various angiogenic and VEGF related binding activity described herein. To achieve this, the inventors singly changed each of the 12 amino acid residues in peptide #237 to alanine and performed experiments examining the effect of the alanine substitution at various positions on endothelial cell binding to VEGF. A total of 12 alanine substituted peptides were made and tested: Ala-1, Ala-2, Ala-3, Ala-4, Ala-5, Ala-6, Ala-7, Ala-8, Ala-9, Ala-10, Ala-11, Ala-12, (SEQ. ID. NOS. 39-50) wherein the number indicate the position where the alanine substitution occurred. (Note that the amino acid at position 12 of peptide #237 was changed to glycine in Ala-12). In addition, a “flip #237” peptide having the sequence AAVVTTTQRQVRD (SEQ. ID. NO. 53) was also made and studied.

Test [2] relates to endothelial cells. Kind of test: Matrigel assay, endothelial cell migration in vivo (FACS). To be noted: for endothelial cells among matrigel liberated cells (FACS, CD31): Matrigel s.c. with 500 ng VEGF, with or without 180 μg #237, day 6. Also noted: species or system C57bl mice. The procedure: On day 6, animals were sacrificed and fluorescence-activated cell sorting (FACS) analysis was used for determination of the matrigel liberated cells. In order to distinguish the endothelial cells from hematopoietic cells, the cells were incubated with two antibodies CD31-PE and CD45-APC which are specific to endothelial cells and hematopoietic cells respectively.

A further test relates to mouse corneas. Kind of test: Corneal micropocket assay with VEGF pellet. Type of test: in vivo. The conditions noted are these: pellet 160 ng VEGF 165 + 1.3 ug #237 vs VEGF pellet alone, 5 days. The procedure: Vigorous vessel in-growth from the limbus at 5 days was recorded as a positive response.
In order to evaluate the modulating effect of peptide #237 on the angiogenesis process, a corneal micropocket assay was performed. Two kinds of pellets were created, both containing 160 ng carrier-free recombinant human VEGF 165 (R&D Systems, Minneapolis, Minn.), one of which contains 1.3 ug of #237 peptide. The pellets were implanted into micropockets created in the cornea of two groups of anesthetized mice (n=4). Through the use of standardized slow-release pellets, a predictable angiogenic response is generated over the course of 5 days and then quantified. The area of neovascularization was calculated as vessel area, which is calculated as the product of vessel length measured from the limbus and clock hours around the cornea, using the following equation: vessel area (mm^2)=[clock hours×vessel length (mm)×0.2 mm]. […] The in vivo experiment confirms that the peptide stimulates cell proliferation, and is therefore a good candidate to induce angiogenesis.

The subject of another test is B16-F10 melanoma cells. The test is described as follows: I125-VEGF binding to melanoma cells in presence of peptide. Type of test: cell-based. The conditions noted are these: I125-VEGF 12 ng/ml, 3 h on ice. As for the experimental part:
as §1, §2, §3

The next test deals with ischemic hind limb. Kind of test: Mouse hind limb ischemia model (femoral artery ligation, laser Doppler). Type of test: in vivo. As for the experimental part: Mice were ligated in one of their femoral arteries (the right limb) to simulate hind limb ischemia. The blood flow in mice was analyzed by machine for each mouse before and immediately after the procedure to evaluate if the femoral was ligated properly. Blood flow was compared with the non-operated leg by a laser Doppler imager. […] The ischemic limb is seen as the limb on left side in the laser Doppler images.
In FIG. 12, the white areas indicate normal perfusion with normal blood circulation and black areas indicate no blood flow in the ischemic left hind limb. […] Dark shaded areas within the white areas located at the distal ends of the limbs indicate extremely good blood flow.
The blood flow of the ischemic hind limb is expressed as the ratio between the perfusion of the ischemic limb and the uninjured limb in FIG. 13.

A further test deals with nude mouse ear wound. The test is described as follows: Ear wound neovascularization model. To be noted: matrigel containing #237 (180 μg) daily for 5 days, 2.25 mm punch, vs plain matrigel. Type of test: in vivo. As for the experimental part:
Microvascular in-growth into damaged tissue is an essential component of the normal healing process. In fact, wound therapy is often aimed at promoting neovascularization. The model consists of wounding the dorsal aspect of the ear of a nude mouse. A circular punch was used to create a standardized wound on a nude mouse ear. Constant diameter of wound is given by the size of the punch (2.25 mm), and the ears were treated daily with plain matrigel (FIG. 8A) or matrigel containing peptide #237 (180 μg) (FIG. 8B) for 5 days. […] In order to evaluate the wound neovascularization, the mice were inoculated by dextran-FITC which specifically labeled the endothelial cells, immediately after anesthetizing them.

In test [3] the test system is calvaria critical size defect. Kind of test: Calvaria critical size defect bone repair experiment. Type of test: in vivo, rat. The conditions noted are these: local treatment 28 days, 100 μg/mice/5 days, 5-mm defect, vs saline. As for the experimental part: In this study, the inventors examined the ability of peptide #237 to enhance repair of a critical size defect in a rat calvaria critical size defect experiment. Critical size calvarial defects (5-mm diameter) were created in rats and locally treated with saline (control) or peptide #237 for 28 days (100 μg/mice/5 days). After 28 days, analysis of bone regeneration was determined by soft x-ray.

The test system of test [4] is Primary cortical neuronal cells. Kind of test: Neurite outgrowth in primary cortical neuronal cells. Type of test: cell-based. To be noted: 0.25 μg/μL, 2 days, compared to scrambled peptide. As for the experimental part:
Primary cortical neuronal cells (2×10^4 per well) were plated on poly-L-lysine coated 24 well dishes and treated with either scrambled #237 or peptide #237 (0.25 μg/μL). Cells were then cultured for 2 days.
Neurite outgrowth was evaluated by counting the number of neurites extended from the same number of cells and at the same area.
Peptide 237 increases neurite outgrowth in terminally differentiated cortical neurons. The number of neurite arborizations in these postmitotic cells was estimated using light microscopy by manually counting the number of projections in a given field containing approximately equivalent number of cells. Quantification of neurite outgrowth was also performed by fluorescent staining with a neuron-specific marker (i.e., neurofilament) followed by automated, computational analysis (data not shown).

For another test, the system named is mouse ear wound. Kind of test: Mouse ear punch wound healing model, 14 days. Type of test: in vivo. The conditions noted are these: MATRIGEL containing #237 daily, day 14, vs MATRIGEL
As for the experimental part: In addition to increasing angiogenesis, peptide #237 also accelerates wound healing. In order to evaluate the effect of the peptide on wound healing, ears of five mice were wounded using a circular punch, which creates a wound measuring 1 mm. The ears of wounded mice were treated daily with either MATRIGEL or MATRIGEL containing #237 peptide for 14 days.

“Also recorded” adds a separate entry of the source.

For “Ala-5: peptide #237 with the arginine at position 5 replaced by alanine (DRVQAQTTTVVA)”, in the test with endothelial cells [1] (compared to the original #237), the “ability of endothelial cells to bind VEGF, alanine substituted #237 peptides” value is “increased by more than twice”.
As for DRVQRQ [#237A], the “VEGF binding to cells (endothelial cells) with #237 fragments” value (shortened to “VEGF binding to cells”) in the test with endothelial cells [1] (I125-VEGF 12 ng/ml, 3 h on ice) is on record as “abolished; also recorded: not crucial to enhance VEGF binding”.
Consider DRVQRQTTTVVA [Peptide #237], for which the “endothelial cells relative to VEGF alone” value in the test on endothelial cells [2] (180 ug #237 added to VEGF in Matrigel, day 6) was “six times more”. Also, the “endothelial cells among matrigel liberated cells (FACS, CD31)” value in the test on endothelial cells [2] is recorded as 0.42%. For the same substance, the “increase in I125-VEGF binding to endothelial cells” value in the test with endothelial cells [1] (peptide 720 μg/ml, I125-VEGF 12 ng/ml, 10000 cells, 3 h on ice) was “more than 25 times”. Moreover, the “increase in vessel density versus control pellet” value in the test with mouse corneas stood at 53%. Further, in the test on B16-F10 melanoma cells (peptide 720 μg/ml, 10000 cells), the “increase in I125-VEGF binding to melanoma cells” value is given as “more than 25 times”. Also, in the test on ischemic hind limb (intraperitoneal immediately following femoral artery occlusion, within three to six days), the limb perfusion entry was “significantly improves limb perfusion”. Besides, in the test on ischemic hind limb (ratio ischemic/uninjured limb, on average), the “increase perfusion compared to saline-treated mice” value is recorded as 30-40%. Further, in the test on nude mouse ear wound, the “neovascularization around the ear wound site” value is “significantly increased”. In addition, in test [3], the “bone regeneration (soft x-ray)” value is “completely sealed and covered the aperture”. Also, the neurite outgrowth entry in test [4] is “dramatically induces branched and longer neurites”. Also, the wound area result with mouse ear wound is “significantly smaller”.
As for TTTVVA [#237B], the “VEGF binding to cells” value in the test on endothelial cells [1] (I125-VEGF 12 ng/ml, 3 h on ice) was “partially increases; also recorded: partial increase”. Besides, the “VEGF binding to melanoma cells with #237 fragments” value in the test on B16-F10 melanoma cells (100 μg/ml of each peptide) is listed as “better binding”.
Take VEGF [reference compound]: the “endothelial cells among matrigel liberated cells (FACS, CD31)” value in the test with endothelial cells [2] worked out at 0.07%.
Regarding VQRQTTTV [#237C], the “VEGF binding to cells” value with endothelial cells [1] (I125-VEGF 12 ng/ml, 3 h on ice) is “abolished; also recorded: essentially eliminated”.
